Source: ChEMBL document CHEMBL1201862, “PubChem BioAssay data set” (2004)
Where a name gives a salt, the structure may show the parent alone. Active and inactive are the calls of the source.

How the values were obtained:
[1] = A375 melanoma cell viability loss, dose response, counter-screen for MITF inhibitor project, CellTiter-Glo luminescence, dry powder, set 4 (AID 624364); type: functional, cell-based; conditions: A-375;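 also: A375 melanoma cells are MITF independent so this is a counter screen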
[2] = TRPM1 promoter luciferase reporter signal decrease, dose response, MITF inhibitor project, cell-based, SK-MEL-5, dry powder, set 9 (AID 651588); type: functional
[3] = SK-MEL-5 parental cell viability reduction, dose response, orthogonal assay for MITF inhibitor project, CellTiter-Glo luminescence, dry powder, set 8 (AID 651586); type: functional, cell-based
[4] = A375 melanoma cell viability loss, dose response, counter-screen for MITF modulator project, CellTiter-Glo luminescence, dry powder, set 9 (AID 651591); type: functional, cell-based; conditions: A-375
[5] = MITF Measured in Cell-Based System Using Plate Reader - 2084-01_Inhibitor_Dose_DryPowder_Activity_Set6.; type: functional
[6] = SK-MEL-5 parental line viability, dose response, MITF inhibitor project, cell-based, CellTiter-Glo, dry powder, set 6 (AID 624429); type: functional
[7] = MITF Orthogonal Assay: SK-MEL-5 CTG Assay Measured in Cell-Based System Using Plate Reader - 2084-02_Inhibitor_Dose_DryPowder_Activity_Set5.; type: functional
[8] = MALME3 melanoma cell viability reduction, dose response, orthogonal assay for MITF inhibitor project, CellTiter-Glo luminescence, dry powder, set 5 (AID 651584); type: functional, cell-based; conditions: MALME-3
[9] = MITF Measured in Cell-Based System Using Plate Reader - 2084-01_Inhibitor_Dose_DryPowder_Activity_Set7.; type: functional
[10] = A375 melanoma cell cytotoxicity, dose response, counter-screen for MITF inhibitor project, CellTiter-Glo luminescence, dry powder, set 6 (AID 624488); type: functional, cell-based; conditions: A-375
[11] = A375 melanoma cell cytotoxicity, dose response, counter-screen for MITF inhibitor project, CellTiter-Glo luminescence, dry powder, set 7 (AID 624490); type: functional, cell-based; conditions: A-375
[12] = MITF Orthogonal Assay: MALME3 CTG Assay Measured in Cell-Based System Using Plate Reader - 2084-04_Inhibitor_Dose_DryPowder_Activity_Set6.; type: functional; conditions: MALME-3
[13] = A375 melanoma cell cytotoxicity, dose response, counter-screen for MITF inhibitor project, CellTiter-Glo luminescence, dry powder, set 2 (AID 624489); type: functional, cell-based; conditions: A-375;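 also: actives are compounds lowering A375 viability meaning general cytotoxicity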
[14] = Artemis endonuclease inhibitor potency, dose response, biochemical, fluorescence intensity (AID 720701); type: functional;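 also: Artemis endonuclease enzyme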
[15] = HepG2 cell cytotoxicity, dose response, cytotoxicity control, cherry-picked samples (AID 1159577); type: functional, cell-based
[16] = Plasmodium falciparum Dd2 Sybr green parasite growth Measured in Cell-Based and Microorganism Combination System Using Plate Reader - 2153-01_Inhibitor_Dose_DryPowder_Activity_Set3.; type: functional
[17] = P. falciparum 3D7-ScDHODH growth inhibitors, dose response, SYBR Green, dry powder samples (AID 1159570); type: functional, cell-based;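 also: parasite growth measured after 72 hours of compound exposure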
[18] = P. falciparum Dd2 growth inhibitors, dose response, SYBR Green, cherry-picked samples (AID 1159567); type: functional, cell-based
[19] = P. falciparum Dd2 growth inhibitors, dose response, SYBR Green, dry powder samples, set 9 (AID 1159568); type: functional, cell-based
[20] = P. falciparum ATP4 D1247Y mutant growth inhibitors, dose response, NITD609-resistant line, SYBR Green, dry powder (AID 1159571); type: functional, cell-based;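 also: parasites synchronized at ring stage by sorbitol before testing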
[21] = HepG2 cell cytotoxicity, dose response, cytotoxicity control, plate reader, dry powder samples (AID 1159569); type: functional, cell-based;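 also: inhibitor potency with signal falling toward the positive control level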
[22] = P. falciparum Dd2 growth inhibitors, dose response, SYBR Green, dry powder samples (AID 1159566); type: functional, cell-based;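 also: potency for growth inhibition with lower SYBR green DNA signal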
[23] = P. falciparum Dd2 growth inhibitors, dose response, SYBR Green, dry powder samples, set 4 (AID 1159572); type: functional, cell-based
[24] = A549 cell cytotoxicity, dose response, cytotoxicity control, plate reader, dry powder, set 6 (AID 743312); type: functional, cell-based
[25] = HepG2 cell cytotoxicity, dose response, cytotoxicity control, plate reader, dry powder, set 6 (AID 743311); type: functional, cell-based
cells = conditions: HEK293
[26] = target: FAD-linked sulfhydryl oxidase ALR (Homo sapiens, UniProt P55789); test: inhibitors of human ALR sulfhydryl oxidase, dose response, biochemical, H2O2 detection, luminescence, cherry-pick (AID 493248)
FAD-linked sulfhydryl oxidase ALR, sequence (P55789 whole entry): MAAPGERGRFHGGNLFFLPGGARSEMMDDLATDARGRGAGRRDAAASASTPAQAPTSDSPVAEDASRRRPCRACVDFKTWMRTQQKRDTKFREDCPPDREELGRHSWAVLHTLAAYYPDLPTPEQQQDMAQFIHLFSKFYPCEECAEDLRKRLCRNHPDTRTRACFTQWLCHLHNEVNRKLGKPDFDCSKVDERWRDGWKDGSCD

SN12K1 = test: cells; type: functional; conditions: Homo sapiens
[27] = inhibitors of SNCA 5'UTR-driven reporter translation, confirmation, H4 neuroglioma cells, luminescence (AID 1988); type: functional, cell-based
P388 = test: cells; type: functional; conditions: Mus musculus
[28] = HeLa 4N DNA content increase, dose response, cell-based, IC50 (AID 1117351); type: functional
[29] = Luminescence Cell-Based Dose Response HTS to Identify Inhibitors of 5'UTR Stem-Loop Driven Prion Protein mRNA Translation in H4 Neuroglioblastoma Cells. [Related pubchem assays: 1827 (Project Summary), 1813 (Primary HTS)]; type: functional
[30] = HeLa 2N DNA content increase, dose response, cell-based, IC50 (AID 1117349); type: functional
P388/ADR = test: cells; type: functional; conditions: Mus musculus
[31] = inhibitors of firefly luciferase expression or activity, dose response, H4 neuroglioma cells, luminescence (AID 1990); type: functional, cell-based
[32] = RKO cell viability reduction, dose response, CellTiter-Glo luminescence (AID 1117322); type: functional
[33] = SNU-C1 cell viability reduction, dose response, CellTiter-Glo luminescence (AID 1117323); type: functional, cell-based
[34] = cytotoxicity toward HCT116 cells – cell-based, CellTiter-Glo luminescence, IC50, dose response (AID 1117332); type: functional; conditions: HCT-116
[35] = HCT116 cell viability decrease, GSK3B pretreatment – CellTiter-Glo, IC50, dose response (AID 1117339); type: functional; conditions: HCT-116
[36] = cytotoxicity toward HT-29 cells – cell-based, CellTiter-Glo luminescence, IC50, dose response (AID 1117330); type: functional
[37] = Concentration-dependent survival of SW480 colon cancer line, luminescence detection with CellTiter-Glo, half-maximal inhibitory concentration (AID 1117338); type: functional
[38] = cytotoxicity toward Colo320 cells – cell-based, CellTiter-Glo luminescence, IC50, dose response (AID 1117334); type: functional; conditions: COLO 320
[39] = CellTiter-Glo luminescent dose response of DLD-1 viability loss (AID 1117352); type: functional

Question: Which results are given for `CN1CCN(C2=C(NS(=O)(=O)c3ccc(Br)s3)C(=O)c3ccccc3C2=O)CC1`?
Answer: AC50 [1]: 65 µM (active); AC50 [2]: 8.02 µM (active); AC50 [3]: 36.8 µM (active); AC50 [4]: > 70 µM (inactive); AC50 [5]: 1.94 µM (active); AC50 [6]: 64.7 µM (active); AC50 [7]: 11.2 µM (active); AC50 [8]: 12 µM (active); AC50 [9]: 2.26 µM (active); AC50 [10]: 26.3 µM (active); AC50 [11]: > 70 µM (inactive); AC50 [12]: 12 µM (active); AC50 [13]: 47.4 µM (active)

Question: With `COc1ccc(/C=N/NC(=O)c2nc(-c3ccccc3)cc(-c3ccccc3)n2)cc1` as the compound, how does the IC50 [14] read?
Answer: > 20 µM (inactive)

Question: For `COc1ccc(-c2ccc([C@H]3[C@@H](C#N)N(C(=O)NC(C)C)[C@H]3CO)cc2)cc1`, which AC50 [15] is on record?
Answer: 3.33 µM (active)

Question: And the AC50 [16]?
Answer: 1.86 µM (active)

Question: And the AC50 [17]?
Answer: 3.98 µM (active)

Question: What about the AC50 [18] of the same compound?
Answer: 0.89 µM (active)

Question: And the AC50 [19]?
Answer: 1.2 µM (active)

Question: And the AC50 [20]?
Answer: 0.874 µM (active)

Question: And the AC50 [21]?
Answer: 80.6 µM (active)

Question: What about the AC50 [22] of the same compound?
Answer: 0.559 µM (active)

Question: For `CCC(=O)N1CC2(CCN(C(=O)Nc3ccccc3F)CC2)c2c([nH]c3cc(OC)ccc23)[C@@H]1CO`, which AC50 [19] is on record?
Answer: 0.561 µM (active)

Question: And the AC50 [23]?
Answer: 0.294 µM (active)

Question: For `Cc1cc2ncn(CCOc3ccccc3C)c2cc1C`, which AC50 [24] is on record?
Answer: 11.4 µM (active)

Question: What about the AC50 [25] of the same compound?
Answer: 36.5 µM (active)

Question: And the AC50 (cells)?
Answer: 47.4 µM (active)

Question: With `O=C(O)CCCc1ccc(N(CCCl)CCCl)cc1` [CHLORAMBUCIL] as the compound, how does the AC50 [26] read?
Answer: < 0.005 µM (active)

Question: What about the GI50 (SN12K1) of the same compound?
Answer: 49.5 µM (inactive)

Question: And the EC50 [27]?
Answer: 32.6 µM (active)

Question: And the GI50 (P388)?
Answer: 3.73 µM (inactive)

Question: What about the IC50 [28] of the same compound?
Answer: > 10 µM (inactive)

Question: What about the EC50 [29] of the same compound?
Answer: > 120 µM (not active)

Question: And the IC50 [30]?
Answer: > 10 µM (inactive)

Question: What about the GI50 (P388/ADR) of the same compound?
Answer: 6.25 µM (inactive)

Question: And the EC50 [31]?
Answer: > 120 µM (not active)

Question: With `CNS(=O)(=O)CCc1ccc2[nH]cc(C3CCN(C)CC3)c2c1` [NARATRIPTAN HYDROCHLORIDE] as the compound, how does the IC50 [32] read?
Answer: > 20 µM (inactive)

Question: What about the IC50 [33] of the same compound?
Answer: > 20 µM (inactive)

Question: What about the IC50 [34] of the same compound?
Answer: > 20 µM (inactive)

Question: What about the IC50 [35] of the same compound?
Answer: 12.1 µM (inactive)

Question: And the IC50 [36]?
Answer: > 20 µM (inactive)

Question: And the IC50 [37]?
Answer: > 20 µM (inactive)

Question: And the IC50 [38]?
Answer: > 20 µM (inactive)

Question: And the IC50 [39]?
Answer: > 20 µM (inactive)
